What was measured:
Tyk2 kinase domain (DH1) = Tyk2 kinase domain (DH1) (Homo sapiens (Human), UniProt P29597); assay: Tyk2 Radioactive Kinase Assay; type: biochemical; settings: compound at 10 μM, ATP 10 μM; for inhibition at 10 µM: read-out: Tyk2 JH1% Inhibition @ 10 μM
Procedure, shortened: (§1)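 Compounds were tested at a single concentration of 10 μM in a radiometric kinase format against each isolated kinase domain. Activity is reported as percent inhibition at that concentration.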

[1] = molecular target: human TYK2 (JH2domain-pseudokinase) (Homo sapiens (Human), UniProt P29597); assay: TYK2 JH2 Domain Binding Assay (KINOMEscan)
human TYK2 (JH2domain-pseudokinase), sequence (P29597 556-888): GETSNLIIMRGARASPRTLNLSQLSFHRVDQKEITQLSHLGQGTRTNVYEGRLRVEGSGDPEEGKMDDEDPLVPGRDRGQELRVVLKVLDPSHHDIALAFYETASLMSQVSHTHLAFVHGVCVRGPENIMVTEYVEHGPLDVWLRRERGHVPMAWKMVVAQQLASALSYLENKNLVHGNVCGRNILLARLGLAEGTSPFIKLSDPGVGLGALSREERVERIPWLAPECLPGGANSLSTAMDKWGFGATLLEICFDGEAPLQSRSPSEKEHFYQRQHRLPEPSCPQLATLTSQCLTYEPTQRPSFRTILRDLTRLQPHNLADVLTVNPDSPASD
Procedure, shortened: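 The construct was human TYK2 G556–D888 fused to the NFkB DNA-binding domain and expressed in HEK293 cells; unpurified extract was incubated with compound and liganded beads for 1 hour at room temperature.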

JAK2 kinase domain (JH1) = JAK2 kinase domain (JH1) (Homo sapiens (Human), UniProt O60674); assay: JAK2 Radioactive Kinase Assay; type: biochemical; settings: compound at 10 μM, ATP 10 μM; for inhibition at 10 µM: read-out: JAK2 JH1% Inhibition @ 10 μM
JAK2 kinase domain (JH1), sequence (O60674 849-1124): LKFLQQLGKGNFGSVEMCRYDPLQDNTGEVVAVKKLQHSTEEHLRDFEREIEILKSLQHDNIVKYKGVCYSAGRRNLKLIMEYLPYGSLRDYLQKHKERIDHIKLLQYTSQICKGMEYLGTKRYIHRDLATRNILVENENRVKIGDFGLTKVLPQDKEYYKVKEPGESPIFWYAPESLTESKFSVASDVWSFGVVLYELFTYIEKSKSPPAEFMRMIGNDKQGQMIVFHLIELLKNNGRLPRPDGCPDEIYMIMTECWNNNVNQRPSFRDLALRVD
Procedure, shortened: as §1

Tyk2 kinase domain (DH1), sequence (P29597 897-1176): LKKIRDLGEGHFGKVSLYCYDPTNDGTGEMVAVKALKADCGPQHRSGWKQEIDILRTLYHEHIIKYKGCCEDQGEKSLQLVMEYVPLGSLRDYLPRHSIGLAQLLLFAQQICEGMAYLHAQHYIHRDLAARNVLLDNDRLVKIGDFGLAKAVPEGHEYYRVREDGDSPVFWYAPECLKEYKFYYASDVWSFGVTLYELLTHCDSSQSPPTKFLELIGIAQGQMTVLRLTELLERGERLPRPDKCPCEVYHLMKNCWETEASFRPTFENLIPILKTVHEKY

| Compound | inhibition at 10 µM (Tyk2 kinase domain (DH1)) [%] | Kd [1] [pM] | inhibition at 10 µM (JAK2 kinase domain (JH1)) [%] | Tyk2 JH1% Inhibition @ 10 μM (Tyk2 kinase domain (DH1)) | JAK2 JH1% Inhibition @ 10 μM (JAK2 kinase domain (JH1)) |
| --- | --- | --- | --- | --- | --- |
| CNc1cc(-c2nn(CCN3CCOCC3)c3ncccc23)nc2c(C(=O)N[C@H]3C[C@H]3F)cnn12 [I-456] | < 50 | 1000 to 10000 | < 50 |  |  |
| CNc1cc(-c2nn(CCN3CCCCC3)c3ncccc23)nc2c(C(=O)NC3CC3)cnn12 [I-457] | < 50 | 1000 to 10000 | < 50 |  |  |
| CNc1cc(-c2nn(CCN3CCCCC3)c3ncccc23)nc2c(C(=O)N[C@H]3C[C@H]3F)cnn12 [I-458] | < 50 | 200 to 1000 | < 50 |  |  |
| [2H]C([2H])([2H])Oc1ncccc1Nc1cc(NC)n2ncc(C(=O)N[C@H]3CCC[C@H](O)C3)c2n1 [I-460] | < 50 | < 200 | < 50 |  |  |
| [2H]C([2H])([2H])Oc1ncccc1Nc1cc(NC)n2ncc(C(=O)N[C@H]3CC[C@H](O)C3)c2n1 [I-462] | < 50 | < 200 | < 50 |  |  |
| CNc1cc(Nc2cccnc2OC2CC2)nc2c(C(=O)N[C@@H]3CCC[C@H]3O)cnn12 [I-465, 5-((2-cyclopropoxypyridin-3-yl)amino)-N-((1R,2R)-2-hydroxycyclopentyl)-7-(methylamino)pyrazolo[1,5-a]pyrimidine-3-carboxamide] |  | 200 to 1000 |  | A (percent inhibition at 10 μM lower than 50) | A (percent inhibition at 10 μM lower than 50) |
| CNc1cc(Nc2cccnc2OC2CC2)nc2c(C(=O)N[C@H]3CCC[C@@H]3O)cnn12 [I-466, 5-((2-cyclopropoxypyridin-3-yl)amino)-N-((1S,2S)-2-hydroxycyclopentyl)-7-(methylamino)pyrazolo[1,5-a]pyrimidine-3-carboxamide] | < 50 | 200 to 1000 | < 50 |  |  |
| CNc1cc(Nc2cccnc2OC)nc2c(C(=O)N[C@H]3CC[C@H](O)C3)cnn12 [I-467] | < 50 | 200 to 1000 | < 50 |  |  |
| CNc1cc(Nc2cccnc2OC)nc2c(C(=O)NCCC3(O)CC3)cnn12 [I-468, N-(2-(1-hydroxycyclopropyl)ethyl)-5-((2-methoxypyridin-3-yl)amino)-7-(methylamino)pyrazolo[1,5-a]pyrimidine-3-carboxamide] | < 50 | 200 to 1000 | < 50 |  |  |
| CNc1cc(Nc2cccnc2OC2CC2)nc2c(C(=O)NCCC3(O)CC3)cnn12 [I-469, 5-((2-cyclopropoxypyridin-3-yl)amino)-N-(2-(1-hydroxycyclopropyl)ethyl)-7-(methylamino)pyrazolo[1,5-a]pyrimidine-3-carboxamide] | < 50 | 1000 to 10000 | < 50 |  |  |
| [2H]C([2H])([2H])Oc1ncccc1Nc1cc(NC)n2ncc(C(=O)NCCC3(O)CC3)c2n1 [I-470, N-(2-(1-hydroxycyclopropyl)ethyl)-5-((2-(methoxy-d3)pyridin-3-yl)amino)-7-(methylamino)pyrazolo[1,5-a]pyrimidine-3-carboxamide] | < 50 | < 200 | < 50 |  |  |
| CNc1cc(Nc2cccn(C3CCCN(C)C3)c2=O)nc2c(C(=O)NC3CC3)cnn12 (stereo not drawn) [I-471] | < 50 | 200 to 1000 | < 50 |  |  |
| CNc1cc(Nc2cccn(CCOC3CC3)c2=O)nc2c(C(=O)N[C@@H]3CC[C@H]3O)cnn12 [I-472, 5-((1-(2-cyclopropoyethyl)-2-oxo-1,2-dihydropyridin-3-yl)amino)-N-(2-hydroxycyclobutyl)-7-(methylamino)pyrazolo[1,5-a]pyrimidine-3-carboxamide] | < 50 | 200 to 1000 | < 50 |  |  |
| CNc1cc(Nc2cccn(CCOC3CC3)c2=O)nc2c(C(=O)N[C@@H]3CC[C@@H]3O)cnn12 [I-473] | < 50 | 200 to 1000 | < 50 |  |  |
| CNc1cc(Nc2cccn([C@H]3CCCOC3)c2=O)nc2c(C(=O)N[C@@H]3C[C@@H]3F)cnn12 [I-475] | < 50 | < 200 | < 50 |  |  |
| CNc1cc(Nc2cccnc2OC)nc2c(C(=O)NC(C)(C)C#N)cnn12 [I-476, N-(2-cyanopropan-2-yl)-5-((2-methoxypyridin-3-yl)amino)-7-(methylamino)-pyrazolo[1,5-a]pyrimidine-3-carboxamide] | < 50 | < 200 | < 50 |  |  |
| CCCCn1cc(-c2cc(NC)n3ncc(C(=O)NC4CC4)c3n2)c2cccnc21 [I-477] | < 50 | 200 to 1000 | < 50 |  |  |
| CCCCn1cc(-c2cc(NC)n3ncc(C(=O)N[C@@H]4C[C@@H]4F)c3n2)c2cccnc21 [I-478, 5-(1-butyl-1H-pyrrolo[2,3-b]pyridine-3-yl)-N-((1R,2S)-2-fluorocyclopropyl)-7-(methylamino)pyrazolo[1,5-a]pyrimidine-3-carboxamide] | < 50 | 200 to 1000 | < 50 |  |  |
| CNc1cc(-c2nn(CCN3CCN(C)CC3)c3ncccc23)nc2c(C(=O)NC3CC3)cnn12 [I-479] | < 50 | 1000 to 10000 | < 50 |  |  |

| Compound | inhibition at 10 µM (Tyk2 kinase domain (DH1)) [%] | Kd [1] [pM] | inhibition at 10 µM (JAK2 kinase domain (JH1)) [%] | Tyk2 JH1% Inhibition @ 10 μM (Tyk2 kinase domain (DH1)) | JAK2 JH1% Inhibition @ 10 μM (JAK2 kinase domain (JH1)) |
| --- | --- | --- | --- | --- | --- |
| CNc1cc(-c2nn(CCN3CCN(C)CC3)c3ncccc23)nc2c(C(=O)N[C@H]3C[C@H]3F)cnn12 [I-480] | < 50 | 200 to 1000 | < 50 |  |  |
| CNc1cc(Nc2cccc(N3CC[C@@H](OC)C3)n2)nc2c(C(=O)NC3CC3)cnn12 [I-481] | < 50 | 200 to 1000 | < 50 |  |  |
| CNc1cc(Nc2cccc(N3CC[C@@H](OC)C3)n2)nc2c(C(=O)NC3CC3)cnn12 [I-482] |  | 200 to 1000 |  | A (percent inhibition at 10 μM lower than 50) | A (percent inhibition at 10 μM lower than 50) |
| CNc1cc(Nc2cccnc2OC)nc2c(C(=O)NC[C@@H](C)CO)cnn12 [I-484] | < 50 | < 200 | < 50 |  |  |
| CNc1cc(Nc2cccn([C@H]3CCC[C@@H]3OC)c2=O)nc2c(C(=O)N[C@@H]3C[C@@H]3F)cnn12 [I-485] |  | 200 to 1000 |  | A (percent inhibition at 10 μM lower than 50) | A (percent inhibition at 10 μM lower than 50) |
| CNc1cc(Nc2cccn([C@@H]3CCC[C@H]3OC)c2=O)nc2c(C(=O)N[C@@H]3C[C@@H]3F)cnn12 [I-486] | < 50 | 200 to 1000 | < 50 |  |  |
| CNc1cc(Nc2cccnc2OC)nc2c(C(=O)N[C@H]3CC[C@H](O)C3)cnn12 [I-487] |  | < 200 |  | A (percent inhibition at 10 μM lower than 50) | A (percent inhibition at 10 μM lower than 50) |
| CNc1cc(Nc2cccnc2OC)nc2c(C(=O)N[C@@H]3CC[C@@H](O)C3)cnn12 [I-488] | < 50 | < 200 | < 50 |  |  |
| CNc1cc(Nc2cccnc2OC2CC2)nc2c(C(=O)N[C@@H]3CC[C@@H](O)C3)cnn12 [I-490, 5-((2-cyclopropoxypyridin-3-yl)amino)-N-((1R,3R)-3-hydroxycyclopentyl)-7-(methylamino)pyrazolo[1,5-a]pyrimidine-3-carboxamide] | < 50 | < 200 | < 50 |  |  |
| CNc1cc(Nc2cccn([C@H]3CCC[C@H]3OC)c2=O)nc2c(C(=O)NC3CC3)cnn12 [I-491] | < 50 | 1000 to 10000 | < 50 |  |  |
| CNc1cc(Nc2cccnc2OC2CC2)nc2c(C(=O)NC(C)(C)C#N)cnn12 [I-492, N-(2-cyanopropan-2-yl)-5-((2-cyclopropoxypyridin-3-yl)amino)-7-(methylamino)pyrazolo[1,5-a]pyrimidine-3-carboxamide] | < 50 | < 200 | < 50 |  |  |
| [2H]C([2H])([2H])Oc1ncccc1Nc1cc(NC)n2ncc(C(=O)NC(C)(C)C#N)c2n1 [I-493, N-(2-cyanopropan-2-yl)-5-((2-(methoxy-d3)pyridin-3-yl)amino)-7-(methylamino)pyrazolo[1,5-a]pyrimidine-3-carboxamide] | < 50 | 200 to 1000 | < 50 |  |  |
| CNc1cc(Nc2cc(F)cn(C3CCCOC3)c2=O)nc2c(C(=O)NC3CC3)cnn12 (stereo not drawn) [I-494] | < 50 | 200 to 1000 | < 50 |  |  |
| CNc1cc(Nc2cccnc2OC)nc2c(C(=O)N[C@H]3CCC[C@H](O)C3)cnn12 [I-496] | < 50 | < 200 | < 50 |  |  |
| CNc1cc(Nc2cccnc2OC)nc2c(C(=O)N[C@@H]3CCC[C@@H](O)C3)cnn12 [I-497] |  | < 200 |  | A (percent inhibition at 10 μM lower than 50) | A (percent inhibition at 10 μM lower than 50) |
| [2H]C([2H])([2H])Oc1ncccc1Nc1cc(NC)n2ncc(C(=O)N[C@H]3CCC[C@H](O)C3)c2n1 [I-498] |  | < 200 |  | A (percent inhibition at 10 μM lower than 50) | A (percent inhibition at 10 μM lower than 50) |
| [2H]C([2H])([2H])Oc1ncccc1Nc1cc(NC)n2ncc(C(=O)N[C@@H]3CC[C@@H](O)C3)c2n1 [I-501] | < 50 | < 200 | < 50 |  |  |
| CNc1cc(Nc2cccn(C3=NC(C)(C)CS3)c2=O)nc2c(C(=O)NC3CC3)cnn12 [I-502] | < 50 | 200 to 1000 | < 50 |  |  |
